Experiment [1] concerns the target TGF-beta receptor type-2 (Homo sapiens) (UniProt P37173). Nature of the experiment: Inhibition of human TGFBR2 using myelin basic protein as substrate at 1 uM in presence of 32P-ATP by Hotspot assay relative to control; values are per cent of control.
In experiment [2] the target is Protein kinase C beta type (Homo sapiens) (UniProt P05771). Nature of the experiment: Inhibition of human PKCb1 using ERMRPRKRQGSVRRRV as substrate at 1 uM in presence of 32P-ATP by Hotspot assay relative to control; values are per cent of control.
In experiment [3] the target is Dual specificity protein kinase CLK1 (Homo sapiens) (UniProt P49759). Nature of the experiment: Inhibition of human CLK1 using myelin basic protein as substrate at 1 uM in presence of 32P-ATP by Hotspot assay relative to control; values are per cent of control.
Experiment [4] has as its target T1, Serine/threonine-protein kinase Nek2 (Homo sapiens) (UniProt P51955).
T1 sequence (whole entry): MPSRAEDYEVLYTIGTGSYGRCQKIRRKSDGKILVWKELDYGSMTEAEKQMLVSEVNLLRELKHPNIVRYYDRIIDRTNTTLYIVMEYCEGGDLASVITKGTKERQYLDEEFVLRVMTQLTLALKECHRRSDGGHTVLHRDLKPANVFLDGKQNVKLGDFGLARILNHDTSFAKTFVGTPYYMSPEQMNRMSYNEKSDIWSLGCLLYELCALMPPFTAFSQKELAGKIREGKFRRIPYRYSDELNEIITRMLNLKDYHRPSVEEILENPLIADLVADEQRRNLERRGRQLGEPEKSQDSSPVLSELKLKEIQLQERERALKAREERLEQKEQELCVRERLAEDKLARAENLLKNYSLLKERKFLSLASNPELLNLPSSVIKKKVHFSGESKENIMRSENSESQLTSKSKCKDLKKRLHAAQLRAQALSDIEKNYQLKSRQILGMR
Nature of the experiment: Inhibition of human NEK2 using myelin basic protein as substrate at 1 uM in presence of 32P-ATP by Hotspot assay relative to control; values are per cent of control.

For experiment [5], the target named is Leukocyte tyrosine kinase receptor (Homo sapiens) (UniProt P29376). Nature of the experiment: Inhibition of human TYK1/LTK using EAIYAAPFAKKK as substrate at 1 uM in presence of 32P-ATP by Hotspot assay relative to control; values are per cent of control.
Experiment [6] concerns the target Serine/threonine-protein kinase PAK 2 (Homo sapiens) (UniProt Q13177). Nature of the experiment: Inhibition of human PAK2 using RRRLSFAEPG as substrate at 1 uM in presence of 32P-ATP by Hotspot assay relative to control; values are per cent of control.
For experiment [7], the target named is T2, Serine/threonine-protein kinase BRSK2 (Homo sapiens) (UniProt Q8IWQ3).
T2 sequence (whole entry): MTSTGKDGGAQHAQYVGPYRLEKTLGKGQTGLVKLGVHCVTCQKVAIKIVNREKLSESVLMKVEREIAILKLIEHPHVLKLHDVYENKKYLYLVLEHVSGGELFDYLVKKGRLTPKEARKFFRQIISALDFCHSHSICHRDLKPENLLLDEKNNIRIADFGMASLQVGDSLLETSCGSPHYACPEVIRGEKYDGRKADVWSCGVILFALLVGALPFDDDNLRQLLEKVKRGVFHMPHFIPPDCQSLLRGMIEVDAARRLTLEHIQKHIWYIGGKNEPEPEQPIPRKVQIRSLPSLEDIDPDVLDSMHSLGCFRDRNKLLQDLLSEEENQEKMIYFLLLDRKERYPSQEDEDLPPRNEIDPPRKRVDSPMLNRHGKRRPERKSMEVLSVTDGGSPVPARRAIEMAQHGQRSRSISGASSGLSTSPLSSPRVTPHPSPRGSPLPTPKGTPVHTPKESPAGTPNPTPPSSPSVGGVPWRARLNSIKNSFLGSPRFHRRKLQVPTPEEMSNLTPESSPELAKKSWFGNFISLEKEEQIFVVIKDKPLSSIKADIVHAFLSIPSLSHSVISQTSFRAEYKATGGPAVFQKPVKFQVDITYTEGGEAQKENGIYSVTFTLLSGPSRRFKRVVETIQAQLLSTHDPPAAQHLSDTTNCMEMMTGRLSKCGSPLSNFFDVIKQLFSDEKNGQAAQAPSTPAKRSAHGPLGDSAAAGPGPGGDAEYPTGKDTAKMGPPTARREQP
Nature of the experiment: Inhibition of human BRSK2 using KKLNRTLSFAEPG as substrate at 1 uM in presence of 32P-ATP by Hotspot assay relative to control; values are per cent of control.

Experiment [8] addresses T3, Rhodopsin kinase GRK7 (Homo sapiens) (UniProt Q8WTQ7).
T3 sequence (whole entry): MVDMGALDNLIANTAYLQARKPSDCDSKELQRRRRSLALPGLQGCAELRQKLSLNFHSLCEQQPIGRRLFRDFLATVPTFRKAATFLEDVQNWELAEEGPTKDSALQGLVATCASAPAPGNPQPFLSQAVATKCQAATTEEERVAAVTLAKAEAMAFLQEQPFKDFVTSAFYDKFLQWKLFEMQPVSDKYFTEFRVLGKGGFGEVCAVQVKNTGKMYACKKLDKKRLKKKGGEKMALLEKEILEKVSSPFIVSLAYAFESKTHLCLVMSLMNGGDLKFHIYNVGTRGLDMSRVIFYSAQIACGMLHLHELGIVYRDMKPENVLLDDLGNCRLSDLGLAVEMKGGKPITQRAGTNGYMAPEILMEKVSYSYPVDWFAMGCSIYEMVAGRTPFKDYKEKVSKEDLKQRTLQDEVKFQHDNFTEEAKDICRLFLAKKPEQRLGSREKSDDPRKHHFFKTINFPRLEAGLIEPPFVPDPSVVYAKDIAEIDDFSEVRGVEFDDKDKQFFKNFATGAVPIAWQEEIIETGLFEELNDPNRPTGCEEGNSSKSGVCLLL
Nature of the experiment: Inhibition of human GRK7 using casein as substrate at 1 uM in presence of 32P-ATP by Hotspot assay relative to control; values are per cent of control.

For three compounds, residual activity results are on record in ChEMBL document CHEMBL5649166, “RIP3 induces apoptosis independent of pronecrotic kinase activity” (Mol Cell, 2014).

Structures are written as SMILES.

Sequence of Serine/threonine-protein kinase PAK 2 (Homo sapiens) (Q13177 whole entry): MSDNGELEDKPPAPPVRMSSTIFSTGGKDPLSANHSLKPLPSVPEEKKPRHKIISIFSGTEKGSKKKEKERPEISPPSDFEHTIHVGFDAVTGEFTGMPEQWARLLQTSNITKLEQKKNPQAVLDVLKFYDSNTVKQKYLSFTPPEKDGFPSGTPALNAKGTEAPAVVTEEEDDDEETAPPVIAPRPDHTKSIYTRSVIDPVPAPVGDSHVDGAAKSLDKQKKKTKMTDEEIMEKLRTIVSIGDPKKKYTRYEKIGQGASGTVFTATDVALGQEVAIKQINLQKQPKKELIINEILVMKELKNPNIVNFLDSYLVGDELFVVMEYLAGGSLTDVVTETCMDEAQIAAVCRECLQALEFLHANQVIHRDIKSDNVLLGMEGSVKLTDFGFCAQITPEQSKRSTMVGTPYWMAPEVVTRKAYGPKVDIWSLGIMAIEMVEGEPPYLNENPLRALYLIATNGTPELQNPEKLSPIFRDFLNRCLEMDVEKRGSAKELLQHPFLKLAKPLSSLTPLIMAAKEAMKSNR
Sequence of Protein kinase C beta type (Homo sapiens) (P05771 2-671 limits assumed): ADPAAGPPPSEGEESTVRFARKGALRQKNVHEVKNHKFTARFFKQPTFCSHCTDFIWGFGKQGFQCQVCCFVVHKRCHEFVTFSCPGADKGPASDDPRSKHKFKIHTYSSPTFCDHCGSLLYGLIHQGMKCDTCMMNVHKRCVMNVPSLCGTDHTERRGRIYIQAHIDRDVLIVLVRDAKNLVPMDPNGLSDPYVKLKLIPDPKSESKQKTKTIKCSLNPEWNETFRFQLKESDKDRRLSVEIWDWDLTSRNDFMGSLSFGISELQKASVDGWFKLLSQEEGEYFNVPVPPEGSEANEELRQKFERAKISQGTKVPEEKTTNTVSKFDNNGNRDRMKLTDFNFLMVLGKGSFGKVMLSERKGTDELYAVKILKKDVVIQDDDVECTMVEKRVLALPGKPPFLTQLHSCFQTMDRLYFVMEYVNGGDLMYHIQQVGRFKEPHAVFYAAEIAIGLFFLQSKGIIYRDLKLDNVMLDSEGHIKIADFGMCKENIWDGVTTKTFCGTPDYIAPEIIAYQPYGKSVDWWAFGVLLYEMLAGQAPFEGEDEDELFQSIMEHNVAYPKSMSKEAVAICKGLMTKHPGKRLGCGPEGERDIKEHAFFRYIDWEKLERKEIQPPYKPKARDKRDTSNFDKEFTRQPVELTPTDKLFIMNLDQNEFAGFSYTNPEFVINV
Sequence of Dual specificity protein kinase CLK1 (Homo sapiens) (P49759 whole entry, looked up): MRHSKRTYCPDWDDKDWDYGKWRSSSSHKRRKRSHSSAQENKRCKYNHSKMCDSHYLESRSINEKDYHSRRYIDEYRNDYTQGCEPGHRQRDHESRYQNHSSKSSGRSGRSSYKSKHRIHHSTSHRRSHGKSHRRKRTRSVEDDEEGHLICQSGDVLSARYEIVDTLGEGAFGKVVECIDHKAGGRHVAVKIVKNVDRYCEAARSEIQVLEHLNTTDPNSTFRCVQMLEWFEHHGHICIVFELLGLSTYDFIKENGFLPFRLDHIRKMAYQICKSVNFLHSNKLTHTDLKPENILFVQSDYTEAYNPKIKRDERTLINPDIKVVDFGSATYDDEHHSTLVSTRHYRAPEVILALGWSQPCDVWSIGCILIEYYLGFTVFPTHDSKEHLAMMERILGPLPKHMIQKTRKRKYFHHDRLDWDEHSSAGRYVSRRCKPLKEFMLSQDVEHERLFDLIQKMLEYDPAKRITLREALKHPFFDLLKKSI
Sequence of Leukocyte tyrosine kinase receptor (Homo sapiens) (P29376 whole entry): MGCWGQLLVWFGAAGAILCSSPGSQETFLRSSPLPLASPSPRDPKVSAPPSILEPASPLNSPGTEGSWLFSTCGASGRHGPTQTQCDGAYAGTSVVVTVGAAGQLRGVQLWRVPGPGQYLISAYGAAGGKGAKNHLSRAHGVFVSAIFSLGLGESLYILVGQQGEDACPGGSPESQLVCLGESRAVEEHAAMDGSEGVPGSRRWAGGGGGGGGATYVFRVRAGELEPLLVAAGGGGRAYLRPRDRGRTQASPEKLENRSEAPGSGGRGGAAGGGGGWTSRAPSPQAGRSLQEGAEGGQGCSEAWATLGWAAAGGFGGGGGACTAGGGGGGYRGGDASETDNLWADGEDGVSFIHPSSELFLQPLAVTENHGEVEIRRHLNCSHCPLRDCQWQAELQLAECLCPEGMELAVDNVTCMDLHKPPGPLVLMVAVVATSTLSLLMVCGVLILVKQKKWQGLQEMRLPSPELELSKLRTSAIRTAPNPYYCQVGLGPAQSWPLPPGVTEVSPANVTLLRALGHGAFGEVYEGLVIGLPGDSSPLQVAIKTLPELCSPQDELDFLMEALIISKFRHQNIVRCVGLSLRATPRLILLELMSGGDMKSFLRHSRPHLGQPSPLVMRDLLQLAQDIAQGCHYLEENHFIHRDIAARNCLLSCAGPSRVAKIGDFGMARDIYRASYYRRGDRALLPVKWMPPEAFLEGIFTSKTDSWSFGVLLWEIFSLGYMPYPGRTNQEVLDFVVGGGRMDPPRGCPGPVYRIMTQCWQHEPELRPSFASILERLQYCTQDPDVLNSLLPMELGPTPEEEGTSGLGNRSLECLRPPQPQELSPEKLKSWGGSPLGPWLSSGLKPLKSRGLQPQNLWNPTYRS
Sequence of TGF-beta receptor type-2 (Homo sapiens) (P37173 whole entry): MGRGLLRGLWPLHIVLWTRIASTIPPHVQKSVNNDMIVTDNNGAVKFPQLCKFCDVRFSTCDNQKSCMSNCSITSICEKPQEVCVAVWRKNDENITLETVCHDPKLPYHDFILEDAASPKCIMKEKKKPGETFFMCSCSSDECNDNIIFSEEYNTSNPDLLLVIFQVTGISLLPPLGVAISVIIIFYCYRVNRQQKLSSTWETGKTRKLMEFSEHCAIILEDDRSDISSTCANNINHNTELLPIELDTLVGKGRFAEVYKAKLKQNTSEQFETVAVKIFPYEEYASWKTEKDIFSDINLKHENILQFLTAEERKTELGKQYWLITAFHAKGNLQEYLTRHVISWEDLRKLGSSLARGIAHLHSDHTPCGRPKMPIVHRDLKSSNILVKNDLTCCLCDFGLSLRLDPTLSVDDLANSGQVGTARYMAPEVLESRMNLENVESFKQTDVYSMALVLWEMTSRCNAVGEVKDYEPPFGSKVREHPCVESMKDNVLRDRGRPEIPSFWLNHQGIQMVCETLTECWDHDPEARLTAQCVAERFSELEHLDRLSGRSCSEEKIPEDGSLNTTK

For `CC(C)S(=O)(=O)c1ccc2nccc(Nc3ccc4scnc4c3)c2c1`, the residual activity came out at 101% in experiment [1]; 96.3% in experiment [2]; 97.6% in experiment [3]; 100% in experiment [4]; 98.3% in experiment [5]; 101% in experiment [6]. Besides, the residual activity in experiment [7] turned out to be 99.4%; in experiment [8], 101%.

`CNC(=O)c1ccc2c(c1)ncn2-c1ccc(CC(=O)OC(C)(C)C)cc1`: the residual activity in experiment [1] was found to be 73.3%; in experiment [2], 95%; in experiment [3], 95.4%; in experiment [4], 102%; in experiment [5], 101%; in experiment [6], 91%. Further, the results for the residual activity in experiment [7] and in experiment [8] were 92% and 92.4%, respectively.

For the compound `Cc1cc(-c2cnc(N)c3c(-c4ccc5scnc5c4)csc23)n(C)n1`, the residual activity in experiment [1] is 35.2%; in experiment [2] it was 96.1%; in experiment [3], 74.7%; in experiment [4] it was 101%; in experiment [5], 73.8%; in experiment [6], 96.2%. For the same compound, the residual activity came out at 89% in experiment [7] and 100% in experiment [8].
